Experiments:
[1] = system: Blumeria graminis f. sp. tritici; assay: Blumeria graminis f. sp. tritici / wheat / leaf disc preventative (powdery mildew); type: in vivo; conditions: foliar, inoculated 1 day after application
Description: Example B7: Blumeria graminis f. Sp. Tritici (Erysiphe graminis f. Sp. Tritici)/Wheat/Leaf Disc Preventative (Powdery Mildew on Wheat) Wheat leaf segments cv. Kanzler are placed on agar in a multiwell plate (24-well format) and sprayed with the formulated test compound diluted in water. The leaf disks are inoculated by shaking powdery mildew infected plants above the test plates 1 day after application. The inoculated leaf disks are incubated at 20° C. and 60% relative humidity under a light regime of 24 h darkness followed by 12 h light/12 h darkness in a climate chamber and the activity of a compound is assessed as percent disease control compared to untreated when an appropriate level of disease damage appears on untreated check leaf segments (6-8 days after application).

Phaeosphaeria nodorum = Phaeosphaeria nodorum (Septoria nodorum) / wheat / leaf disc preventative (glume blotch); type: in vivo; conditions: Parastagonospora nodorum, foliar, inoculated 2 days after application
Description: Example B9: Phaeosphaeria nodorum (Septoria nodorum)/Wheat/Leaf Disc Preventative (Glume Blotch) Wheat leaf segments cv. Kanzler are placed on agar in a multiwell plate (24-well format) and sprayed with the formulated test compound diluted in water. The leaf disks are inoculated with a spore suspension of the fungus 2 days after application. The inoculated test leaf disks are incubated at 20° C. and 75% relative humidity under a light regime of 12 h light/12 h darkness in a climate cabinet and the activity of a compound is assessed as percent disease control compared to untreated when an appropriate level of disease damage appears in untreated check leaf disks (5-7 days after application).

[2] = system: Mycosphaerella graminicola; assay: Mycosphaerella graminicola (Septoria tritici) / liquid culture (Septoria blotch); type: cell-based; conditions: Zymoseptoria tritici, 96 h, photometrically 4-5 days after application, read-out: control of Mycosphaerella graminicola
Method in brief: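 Growth inhibition measured by photometry 4-5 days post application, at 24° C incubation. Test compound supplied as DMSO solution; fungal conidia from cryostorage suspended directly in potato dextrose broth as inoculum.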

Alternaria solani = Alternaria solani / tomato / leaf disc (early blight); type: in vivo; conditions: foliar, inoculated 2 days after application, vs untreated control
Botryotinia fuckeliana = Botryotinia fuckeliana (Botrytis cinerea) / liquid culture (gray mould); type: cell-based; conditions: 72 h, growth inhibition photometrically 3-4 days after application, read-out: control of Botryotinia fuckeliana
Description: Example B2: Botryotinia Fuckeliana (Botrytis cinerea)/Liquid Culture (Gray Mould) Conidia of the fungus from cryogenic storage are directly mixed into a nutrient broth (Vogels broth). After placing a DMSO solution of test compound into a microtiter plate (96-well format), the nutrient broth containing the fungal spores is added. The test plates are incubated at 24° C. and the inhibition of growth is determined photometrically 3-4 days after application.

Glomerella lagenarium = Glomerella lagenarium (Colletotrichum lagenarium) / liquid culture (anthracnose); type: cell-based; conditions: Colletotrichum orbiculare, 72 h, photometrically 3-4 days after application, read-out: control of Glomerella lagenarium
Method in brief: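 Conidia in potato dextrose broth added to test compound delivered as DMSO solution in microtiter plates; incubation at 24° C. Growth inhibition read photometrically 3-4 days after application.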

Mycosphaerella arachidis = Mycosphaerella arachidis (Cercospora arachidicola) / liquid culture (early leaf spot); type: cell-based; conditions: 96 h, photometrically 4-5 days after application, read-out: control of Mycosphaerella arachidis
Method in brief: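 Photometric growth inhibition, read 4-5 days post-application at 24 °C, of Cercospora arachidicola spores suspended in potato dextrose broth and exposed to test compound delivered from DMSO solution.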

Monographella nivalis = Monographella nivalis (Microdochium nivale) / liquid culture (foot rot cereals); type: cell-based; conditions: 96 h, photometrically 4-5 days after application, read-out: control of Monographella nivalis
Method in brief: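 Test compound, applied as a DMSO solution, was challenged with fungal spores suspended in potato dextrose broth; after 4-5 days at 24° C, photometric readout gave inhibition of growth.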

[3] = system: Puccinia recondita f. sp. tritici; assay: Puccinia recondita f. sp. tritici / wheat / leaf disc preventative (brown rust); type: in vivo; conditions: foliar, inoculated 1 day after application
Description: Example B14: Puccinia recondita f. Sp. Tritici/Wheat/Leaf Disc Preventative (Brown Rust) Wheat leaf segments cv. Kanzler are placed on agar in multiwell plates (24-well format) and sprayed with the formulated test compound diluted in water. The leaf disks are inoculated with a spore suspension of the fungus 1 day after application. The inoculated leaf segments are incubated at 19° C. and 75% relative humidity under a light regime of 12 h light/12 h darkness in a climate cabinet and the activity of a compound is assessed as percent disease control compared to untreated when an appropriate level of disease damage appears in untreated check leaf segments (7-9 days after application).

Pyrenophora teres = Pyrenophora teres / barley / leaf disc preventative (net blotch); type: in vivo; conditions: foliar, inoculated 2 days after application
Description: Example B16: Pyrenophora teres/Barley/Leaf Disc Preventative (Net Blotch) Barley leaf segments cv. Hasso are placed on agar in a multiwell plate (24-well format) and sprayed with the formulated test compound diluted in water. The leaf segments are inoculated with a spore suspension of the fungus 2 days after application. The inoculated leaf segments are incubated at 20° C. and 65% relative humidity under a light regime of 12 h light/12 h darkness in a climate cabinet and the activity of a compound is assessed as disease control compared to untreated when an appropriate level of disease damage appears in untreated check leaf segments (5-7 days after application).

CC1c2ccccc2C(C)(c2cnn(C)c2F)CN1C(=O)c1cc(-c2ccc(F)cc2F)on1 (centres unmarked) [Compound P-11, [5-(2,4-difluorophenyl)isoxazol-3-yl]-[4-(5-fluoro-1-methyl-pyrazol-4-yl)-1,4-dimethyl-1,3-dihydroisoquinolin-2-yl]methanone]
≥ 80%: pest or weed control at 200 ppm [1] | pest or weed control at 200 ppm (Phaeosphaeria nodorum) | inhibition of growth at 20 ppm [2] | pest or weed control at 200 ppm (Alternaria solani) | inhibition of growth at 20 ppm (Botryotinia fuckeliana) | inhibition of growth at 20 ppm (Glomerella lagenarium) | inhibition of growth at 20 ppm (Mycosphaerella arachidis) | inhibition of growth at 20 ppm (Monographella nivalis)

C#Cc1ccc(-c2cc(C(=O)N3Cc4ccccc4C(c4cnn(C)c4)C3)no2)c(F)c1 (centres unmarked) [Compound P-31, [5-(4-ethynyl-2-fluoro-phenyl)isoxazol-3-yl]-[4-(1-methylpyrazol-4-yl)-3,4-dihydro-1H-isoquinolin-2-yl]methanone]
≥ 80%: pest or weed control at 200 ppm [3]

CC1c2ccc(OCC(F)(F)F)cc2C(C)(c2cnn(C)c2)CN1C(=O)c1cc(-c2ccc(F)cc2F)on1 (centres unmarked) [Compound P-34, [5-(2,4-difluorophenyl)isoxazol-3-yl]-[1,4-dimethyl-4-(1-methylpyrazol-4-yl)-6-(2,2,2-trifluoroethoxy)-1,3-dihydroisoquinolin-2-yl]methanone]
≥ 80%: pest or weed control at 200 ppm [3] | inhibition of growth at 20 ppm [2] | inhibition of growth at 20 ppm (Mycosphaerella arachidis) | inhibition of growth at 20 ppm (Monographella nivalis)

Cn1ncc(C2CN(C(=O)c3cc(-c4ccc(F)cc4F)on3)Cc3ccccc32)c1Br (centres unmarked) [Compound P-45, [4-(5-bromo-1-methyl-pyrazol-4-yl)-3,4-dihydro-1H-isoquinolin-2-yl]-[5-(2,4-difluorophenyl)isoxazol-3-yl]methanone]
≥ 80%: pest or weed control at 200 ppm (Pyrenophora teres) | pest or weed control at 200 ppm (Phaeosphaeria nodorum) | inhibition of growth at 20 ppm [2] | pest or weed control at 200 ppm (Alternaria solani) | inhibition of growth at 20 ppm (Botryotinia fuckeliana) | inhibition of growth at 20 ppm (Glomerella lagenarium) | inhibition of growth at 20 ppm (Mycosphaerella arachidis) | inhibition of growth at 20 ppm (Monographella nivalis)

COc1ccc2c(c1)CN(C(=O)c1cc(-c3ccc(F)cc3F)on1)CC2c1cnn(C)c1 (centres unmarked) [Compound P-51, [5-(2,4-difluorophenyl)isoxazol-3-yl]-[7-methoxy-4-(1-methylpyrazol-4-yl)-3,4-dihydro-1H-isoquinolin-2-yl]methanone]
≥ 80%: pest or weed control at 200 ppm (Pyrenophora teres) | pest or weed control at 200 ppm (Phaeosphaeria nodorum) | inhibition of growth at 20 ppm [2] | pest or weed control at 200 ppm (Alternaria solani) | inhibition of growth at 20 ppm (Glomerella lagenarium) | inhibition of growth at 20 ppm (Mycosphaerella arachidis) | inhibition of growth at 20 ppm (Monographella nivalis)

Cc1c(C2CN(C(=O)c3nnc(-c4ccc(F)cc4)s3)Cc3ccccc32)cnn1C (centres unmarked) [Compound P-63, [4-(1,5-dimethylpyrazol-4-yl)-3,4-dihydro-1H-isoquinolin-2-yl]-[5-(4-fluorophenyl)-1,3,4-thiadiazol-2-yl]methanone]
≥ 80%: pest or weed control at 200 ppm (Pyrenophora teres) | pest or weed control at 200 ppm [1] | pest or weed control at 200 ppm (Phaeosphaeria nodorum) | inhibition of growth at 20 ppm [2] | pest or weed control at 200 ppm (Alternaria solani) | inhibition of growth at 20 ppm (Botryotinia fuckeliana) | inhibition of growth at 20 ppm (Glomerella lagenarium) | inhibition of growth at 20 ppm (Mycosphaerella arachidis) | inhibition of growth at 20 ppm (Monographella nivalis)

Cc1c(C2CN(C(=O)c3cc(-c4ccccc4F)no3)Cc3ccccc32)cnn1C (centres unmarked) [Compound P-110, [4-(1,5-dimethylpyrazol-4-yl)-3,4-dihydro-1H-isoquinolin-2-yl]-[3-(2-fluorophenyl)isoxazol-5-yl]methanone]
≥ 80%: pest or weed control at 200 ppm (Pyrenophora teres) | pest or weed control at 200 ppm (Phaeosphaeria nodorum) | inhibition of growth at 20 ppm [2] | pest or weed control at 200 ppm (Alternaria solani) | inhibition of growth at 20 ppm (Botryotinia fuckeliana) | inhibition of growth at 20 ppm (Glomerella lagenarium) | inhibition of growth at 20 ppm (Mycosphaerella arachidis) | inhibition of growth at 20 ppm (Monographella nivalis)

Cc1c(C2CN(C(=O)c3cc(-c4ccc(F)cc4)on3)Cc3ccccc32)cnn1C (centres unmarked) [Compound P-120, [4-(1,5-dimethylpyrazol-4-yl)-3,4-dihydro-1H-isoquinolin-2-yl]-[5-(4-fluorophenyl)isoxazol-3-yl]methanone]
≥ 80%: pest or weed control at 200 ppm (Pyrenophora teres) | pest or weed control at 200 ppm (Phaeosphaeria nodorum) | inhibition of growth at 20 ppm [2] | pest or weed control at 200 ppm (Alternaria solani) | inhibition of growth at 20 ppm (Botryotinia fuckeliana) | inhibition of growth at 20 ppm (Glomerella lagenarium) | inhibition of growth at 20 ppm (Mycosphaerella arachidis) | inhibition of growth at 20 ppm (Monographella nivalis)

Cc1ccc2c(c1)C(c1cnn(C)c1)CN(C(=O)c1cc(-c3ccc(F)cc3F)on1)C2 (centres unmarked) [Compound P-133, [5-(2,4-difluorophenyl)isoxazol-3-yl]-[6-methyl-4-(1-methylpyrazol-4-yl)-3,4-dihydro-1H-isoquinolin-2-yl]methanone]
≥ 80%: pest or weed control at 200 ppm [3] | inhibition of growth at 20 ppm [2] | pest or weed control at 200 ppm (Alternaria solani) | inhibition of growth at 20 ppm (Mycosphaerella arachidis) | inhibition of growth at 20 ppm (Monographella nivalis)

CC1c2ccccc2C(c2cnn(C)c2)CN1C(=O)c1cc(-c2ccc(F)cc2F)on1 (centres unmarked) [Compound P-141, [5-(2,4-difluorophenyl)isoxazol-3-yl]-[1-methyl-4-(1-methylpyrazol-4-yl)-3,4-dihydro-1H-isoquinolin-2-yl]methanone]
≥ 80%: pest or weed control at 200 ppm (Pyrenophora teres) | pest or weed control at 200 ppm [1] | pest or weed control at 200 ppm (Phaeosphaeria nodorum) | inhibition of growth at 20 ppm [2] | pest or weed control at 200 ppm (Alternaria solani) | inhibition of growth at 20 ppm (Botryotinia fuckeliana) | inhibition of growth at 20 ppm (Glomerella lagenarium) | inhibition of growth at 20 ppm (Mycosphaerella arachidis) | inhibition of growth at 20 ppm (Monographella nivalis)

Cn1cc(C2CN(C(=O)c3cc(-c4ccc(F)cc4F)no3)Cc3ccccc32)cn1 (centres unmarked) [Compound P-151, [3-(2,4-difluorophenyl)isoxazol-5-yl]-[4-(1-methylpyrazol-4-yl)-3,4-dihydro-1H-isoquinolin-2-yl]methanone]
≥ 80%: pest or weed control at 200 ppm (Pyrenophora teres) | pest or weed control at 200 ppm [1] | pest or weed control at 200 ppm (Phaeosphaeria nodorum) | inhibition of growth at 20 ppm [2] | pest or weed control at 200 ppm (Alternaria solani) | inhibition of growth at 20 ppm (Botryotinia fuckeliana) | inhibition of growth at 20 ppm (Glomerella lagenarium) | inhibition of growth at 20 ppm (Mycosphaerella arachidis) | inhibition of growth at 20 ppm (Monographella nivalis)

CCc1ccc(-c2cc(C(=O)N3Cc4ccccc4C(c4cnn(C)c4)C3)no2)cc1 (centres unmarked) [Compound P-171, [5-(4-ethylphenyl)isoxazol-3-yl]-[4-(1-methylpyrazol-4-yl)-3,4-dihydro-1H-isoquinolin-2-yl]methanone]
≥ 80%: pest or weed control at 200 ppm [3]

Cc1cc(C(=O)N2Cc3ccccc3C(c3cnn(C)c3)C2)no1 (centres unmarked) [Compound P-194, (5-methylisoxazol-3-yl)-[4-(1-methylpyrazol-4-yl)-3,4-dihydro-1H-isoquinolin-2-yl]methanone]
≥ 80%: pest or weed control at 200 ppm [3] | inhibition of growth at 20 ppm [2] | inhibition of growth at 20 ppm (Glomerella lagenarium) | inhibition of growth at 20 ppm (Mycosphaerella arachidis) | inhibition of growth at 20 ppm (Monographella nivalis)

Cn1cc(C2CN(C(=O)c3cc(-c4cccs4)on3)Cc3ccccc32)cn1 (centres unmarked) [Compound P-206, [4-(1-methylpyrazol-4-yl)-3,4-dihydro-1H-isoquinolin-2-yl]-[5-(2-thienyl)isoxazol-3-yl]methanone]
≥ 80%: pest or weed control at 200 ppm [3] | inhibition of growth at 20 ppm [2] | inhibition of growth at 20 ppm (Glomerella lagenarium) | inhibition of growth at 20 ppm (Monographella nivalis)

Source: patent US20250325534A1, “MICROBIOCIDAL TETRAHYDROISOQUINOLINE DERIVATIVES” (SYNGENTA CROP PROTECTION AG, priority 2021, published 2025)
